Assay results taken from patent publication EP2745708A1, “Antidepressant effect of ß-hydroxy-ß-methylbutyrate” (Abbott Laboratories, Inc., priority 2012, dated 2014).

System: rats
Assay: Forced swimming test (FST) in rats
Type: in vivo
Conditions: forced swim test, oral 250 mg/kg or 500 mg/kg body weight after pre-swim and four hours and one hour prior to 5 minute test swim, two independent experiments
Description: The antidepressant effect of HMB was evaluated using the forced swimming test (FST) using the procedure described by Porsolt et al. (Eur. J. Pharmacol. 47(4). 379-91 (1978)). To begin the experiment, rats were individually placed inside vertical cylinders (height 40 cm; diameter 21.5 cm) containing 30 cm of water at 35 °C for 15 minutes (i.e., "pre-swim). Following this pre-swim period, the rats were removed and allowed to dry in a heated enclosure before returning to their cages. The rats were then orally administered a dose of either 250 mg/kg body weight or 500 mg/kg body weight HMB.
Twenty-four hours later, rats were submitted to the test swim, in which the rats were again placed in the cylinder for 5 minutes. Test swims were videotaped and subsequently assessed for latency to immobility, which is the point at which no movements were observed and the rat was in the "deadman" position (i.e., head up, tail down, front legs slightly hunched, and rear legs pointed downwards). Rats were orally administered their respective doses of either 250 mg/kg body weight or 500 mg/kg body weight of HMB four hours and one hours prior to the swim test.

In the case of `CC(C)(O)CC(=O)O` [HMB, 3-hydroxy-3-methylbutanoic acid], the latency to immobility is reported as “significantly increased”.
